Source: paper PMC11703153 (bioRxiv, 2025)

What follows are molecules tested against T1, ChREBP (ChREBPα) (Mus musculus, UniProt Q99MZ3) (assay: isothermal titration calorimetry, purified refolded GSM domain, […] °C). Settings: not given.
T1 sequence (Q99MZ3 43-307): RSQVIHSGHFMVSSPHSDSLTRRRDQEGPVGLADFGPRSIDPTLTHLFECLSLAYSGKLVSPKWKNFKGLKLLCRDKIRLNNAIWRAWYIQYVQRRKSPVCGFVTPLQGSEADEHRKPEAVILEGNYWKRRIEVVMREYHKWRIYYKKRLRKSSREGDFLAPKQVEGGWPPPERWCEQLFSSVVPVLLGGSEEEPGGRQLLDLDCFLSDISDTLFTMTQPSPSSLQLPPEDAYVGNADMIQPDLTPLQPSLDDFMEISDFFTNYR
Format: binding

| Kd [µM] | Compound |
| --- | --- |
| 453 | O=C(CO)COP(=O)(O)O [DHAP, dihydroxyacetone phosphate] |

Same assay, conditions: read-out: Kd ± SD

| Compound | Kd [µM] |
| --- | --- |
| O=P(O)(O)OC[C@H]1OC(O)(COP(=O)(O)O)[C@@H](O)[C@@H]1O (stereo partly shown) [F1,6BP, fructose-1,6-bisphosphate] | 250 |
| O=C(CO)[C@@H](O)[C@H](O)[C@H](O)COP(=O)(O)O [F6P] | 131 |

Now from value to molecule:

| Kd [µM] | Compound |
| --- | --- |
| 221 | O=CC(O)COP(=O)(O)O (stereo not shown) [GA3P, glyceraldehyde-3-phosphate] |
| 17 | O=P(O)(O)OCC(O)CO (stereo not shown) [G3P, glycerol-3-phosphate] |
| 64.3 | O=P(O)(O)OC[C@H]1OC(O)[C@H](O)[C@@H](O)[C@@H]1O (stereo partly shown) [G6P, glucose-6-phosphate] |
| 270 | OC[C@H]1OC(O)[C@H](O)[C@@H](O)[C@@H]1O (stereo partly shown) [Glc, glucose] |
